Values of other authors in US20250121105A1, “METHODS FOR TREATING CANCER USING COMBINATIONS OF PARP INHIBITORS AND ANTIBODY RADIOCONJUGATES” (ACTINIUM PHARMACEUTICALS, INC., priority 2019, published 2025).
Like-named read-outs stand apart in the source and are kept apart here.

Tests used:
[1] = test system: glioblastoma cancer cells; conditions: veliparib (ABT-888) plus ionizing radiation (IR)
[2] = test system: PARP
[3] = order of magnitude only, stated in the background

For `C[C@]1(c2nc3c(C(N)=O)cccc3[nH]2)CCCN1` [veliparib], the “sensitivity of glioblastoma cancer cells to PARPi with ionizing radiation” value [1] is listed as “IR sensitizes glioblastoma cancer cells to PARPi” and the IC50 values [2] is listed as “nanomolar range”.
In the case of `Cn1ncnc1[C@H]1c2n[nH]c(=O)c3cc(F)cc(c23)N[C@@H]1c1ccc(F)cc1` [talazoparib], the IC50 values [2, 3] is given as “picomolar range”.
In the case of `CNCc1ccc(-c2[nH]c3cc(F)cc4c3c2CCNC4=O)cc1` [rucaparib], the IC50 values [2, 3] is listed as “nanomolar range”.
In the case of `NC(=O)c1cccc2cn(-c3ccc([C@@H]4CCCNC4)cc3)nc12` [niraparib], the IC50 values [2, 3] is given as “nanomolar range”.
